Results reported in patent US20180133148A1, “Degradable Microparticles for Protein and Small Molecule Delivery” (Georgia Tech Research Corporation, priority 2016, published 2018).

Legend:
[1] = FTY720 loading and release from degradable heparin-based MPs (plate reader); type: physicochemical
Experimental: FTY720 was loaded onto degradable heparin-based MPs. The amount of FTY720 that was loaded onto the MPs was then assayed via plate reader. In three separate groups, additional amounts of FTY720, i.e. 5 μg, 10 μg and 20 μg, were then added. […] For each of the three separate groups, the extent of FTY720 release was assayed via plate reader each day over 7 days. […] The black line refers to the batch with 20 μg added. The dark blue line refers to the batch with 10 μg added. The light blue line refers to the batch with 5 μg added.

[2] = test system: articular cartilage of the medial tibial plateau; assay: EPIC-μCT of tibial articular cartilage, medial meniscal transection model; type: in vivo, Sprague-Dawley rats
articular cartilage = assay: Safranin-O histology of tibiae, medial meniscal transection model; type: in vivo, Sprague-Dawley rats; conditions: 3 weeks following MMT injury
Description: Medial meniscal transection (MMT) injury was induced using a similar method to previously established protocols. Willett N. J. et al., Arthritis Res Ther. 2014; 16(1):R47. Male Sprague-Dawley rats (250-300 g initial weight and 8-10 weeks old) were used in accordance with protocols approved by the Georgia Institute of Technology Institutional Animal Care and Use Committee. Prior to surgery animals were anesthetized by 5% isoflurane (Isothesia), followed by 2-3% isoflurane during surgery and were administered sustained release buprenorphine as an analgesic. Next, a small incision was made through the skin on the medial aspect of the left femoral-tibial joint. The medial collateral ligament was exposed by blunt dissection and transected to visualize the joint space and medial meniscus. The meniscus was then transected completely at its narrowest point. The skin was sutured with 4.0 silk sutures (Ethicon) and then closed using wound clips.
For TSG-6 loaded MP treatment, MPs were loaded as described above but 3.6 mg MPs were resuspended in a total volume of 50 μL sterile 0.1 wt % BSA PBS solution and subsequently loaded into sterile syringes. 1, 7, and 15 days following MMT injury, MPs were delivered via intra-articular injection through the infrapatellar ligament and into the stifle joint of the left leg. For soluble TSG-6 controls, 16.7 μg TSG-6 was dissolved in a total volume of 50 μL sterile 0.1 wt % BSA PBS solution, loaded into sterile syringes, and delivered using the same method as TSG-6 loaded MPs. Overall, in vivo experimental groups included TSG-6 loaded MPs (18 μg TSG-6 loaded onto 10.8 mg MPs delivered over 3 time points; n=3), soluble TSG-6 (50 μg TSG-6 delivered over 3 time points; n=3) or injury only (no TSG-6 or MPs; n=4). Contralateral tibiae served as uninjured controls.
Following μCT, tibiae were decalcified in Cal-Ex II (Fisher) for 10 days, then processed for histology sectioning as described previously. Tellier L. E. et al. Localized SDF-1 Delivery Increases Pro-Healing Bone Marrow-Derived Cells in the Supraspinatus Muscle Following Severe Rotator Cuff Injury. […]

plasmin = assay: Plasmin inhibition assay (TSG-6 anti-plasmin activity); type: biochemical
Experimental: To assess TSG-6 bioactivity after release from MPs, the plasmin inhibition assay protocol was followed with day 1 TSG-6 release supernatant (11 ng/mL) and compared to a soluble TSG-6 control at the same concentration (11 ng/mL); n=3-5.
Without wishing to be bound by theory, it may be that the sulfate groups removed, the N sulfate group for Hep^−N and the N and […] for Hep−, are necessary for complete heparin binding to TSG-6 and the subsequent enhancement of TSG-6 bioactivity.

[3] = 21 days following MMT injury, compared to uninjured control
[4] = TSG-6 with soluble heparin derivative, or TSG-6 alone

Row | Compound | Loading efficiency of FTY720 ([1]; of the originally added amount of FTY720, 5, 10, 20 μg added) | Total amount of FTY720 released from MPs ([1]; over 7 days, dependent on amount originally added) | Cartilage fibrillation (contrast-enhanced μCT imaging) ([2]; 3 weeks following MMT injury) | Cartilage attenuation [2, 3] | Cartilage thickness [2, 3] | Cartilage volume [2, 3] | Improvement of cartilage degeneration following injury (articular cartilage) | Proteoglycan loss (Safranin-O stained sections) (articular cartilage) | Safranin-O staining of GAG within cartilage (articular cartilage) | Plasmin activity compared to plasmin control (plasmin; [4]) | Plasmin activity compared to plasmin control (plasmin; day 1 release supernatant or soluble control, 11 ng/mL TSG-6) | Effect on TSG-6 anti-plasmin activity compared to TSG-6 alone (plasmin; soluble heparin derivatives, in words)
1 | CCCCCCCCc1ccc(CCC(N)(CO)CO)cc1 [FTY720] | 35-80% | 0.5 to 5 µg |  |  |  |  |  |  |  |  |  | 
2 | soluble TSG-6: human TNF-α-stimulated gene-6, positively charged 35 kDa protein (R&D Systems) |  |  | cartilage fibrillation is present | 1.6±0.2 × | 1.5±0.2 × | 1.9±0.5 × | unable to improve cartilage degeneration | proteoglycan loss is observed | Less intense safranin-O staining was observed | 74.6±0.2% | 96.4±3.1% | 
3 | fully desulfated heparin [Hep−, reference compound] |  |  |  |  |  |  |  |  |  | 69.6±1.2% |  | no significant effect
